*1 amine or outer side, *2 acyl side, *3 side chain or, on linkers, in order; H or OH if unused. Where a SMILES comes first, the peptide text is derived from it. Bridges are numbered along the chain shown (N, C = ends). [ ]: non-standard residue; d: D form. ξ: configuration not given here. Phe(3,4,5-F3) = N[C@@H](Cc1cc(F)c(F)c(F)c1)C(=O)O; Phe(4-F) = N[C@@H](Cc1ccc(F)cc1)C(=O)O; NMeIle(3ξ) = CCC(C)[C@H](NC)C(=O)O; NMeF = CN[C@@H](Cc1ccccc1)C(=O)O; X1 = O=C([C@H]1COCCN1[*:1])[*:2]; dHyp = O=C(O)[C@H]1C[C@H](O)CN1; NMeL = CN[C@@H](CC(C)C)C(=O)O; NMehSer = CN[C@@H](CCO)C(=O)O; NMeNle = CCCC[C@H](NC)C(=O)O; dPip = O=C(O)[C@H]1CCCCN1; Orn = NCCC[C@H](N)C(=O)O
What follows are compounds tested against T1, Human PD-L1/PD-1 (Homo sapiens, UniProt Q9NZQ7) (assay: HTRF Human PD-L1/PD-1 binding assay (PD-1-Ig/PD-L1-His)). Settings: PD-L1-His 10 nM, PD-1-Ig 20 nM; class symbol; read-out: HTRF Human PD-L1/PD-1 Binding Assay IC50 Range.
T1 construct: TVMV protease cleavage site (C); made in house; host or cells: HEK293T cells
T1 sequence (Q9NZQ7 with tags, fused parts or gaps): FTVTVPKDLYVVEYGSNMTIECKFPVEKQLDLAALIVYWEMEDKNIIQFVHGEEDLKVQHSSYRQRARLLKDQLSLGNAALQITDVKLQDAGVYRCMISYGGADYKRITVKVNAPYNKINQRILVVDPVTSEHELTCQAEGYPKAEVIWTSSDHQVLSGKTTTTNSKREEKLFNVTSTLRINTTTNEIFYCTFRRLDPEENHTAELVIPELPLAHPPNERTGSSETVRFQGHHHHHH
Summary of the method: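 Inhibitors were preincubated 15 min with human PD-L1(18-239)-His (10 nM final), then PD-1(25-167)-Ig (20 nM final) was added for 15 min in dPBS/0.1% BSA/0.05% Tween-20. Eu-cryptate anti-Ig (1 nM) and APC anti-His (20 nM) were added; 665/620 nm ratio read after 30 min.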

`CCCC[C@H]1C(=O)N2CCC[C@@H]2C(=O)N[C@@H](CC(=O)O)C(=O)N[C@@H](C(C)C)C(=O)N(C)[C@@H](CC(C)C)C(=O)N[C@@H](CCC(N)=O)C(=O)N2CCC[C@@H]2C(=O)N[C@@H](Cc2c[nH]c3ccccc23)C(=O)N[C@@H](Cc2ccc(O)cc2)C(=O)N[C@@H](CCCN)C(=O)N[C@H](C(=O)NCC(N)=O)CSCC(=O)N[C@@H](Cc2ccc(F)cc2)C(=O)N(C)[C@@H](Cc2ccccc2)C(=O)N1C` [Example 9255] ({CH2CO}-[Phe(4-F)][NMeF][NMeNle][dP]DV[NMeL]Q[dP]WY[Orn]CG-NH2; thioether N-13) and `CCCC[C@H]1C(=O)N2CCC[C@@H]2C(=O)N[C@@H](CC(=O)O)C(=O)N[C@@H](C(C)C)C(=O)N(C)[C@@H](CC(C)C)C(=O)N[C@@H](CCC(N)=O)C(=O)N2CCCC[C@@H]2C(=O)N[C@@H](Cc2c[nH]c3ccccc23)C(=O)N[C@@H](Cc2ccc(O)cc2)C(=O)N[C@@H](CCCN)C(=O)N[C@H](C(=O)NCC(N)=O)CSCC(=O)N[C@@H](Cc2ccc(F)cc2)C(=O)N(C)[C@@H](Cc2ccccc2)C(=O)N1C` [Example 9256] ({CH2CO}-[Phe(4-F)][NMeF][NMeNle][dP]DV[NMeL]Q[dPip]WY[Orn]CG-NH2; thioether N-13) fall in the same range of IC50: 1000 to 10000 nM for the first, 1000 to 10000 nM for the second.

`CCCC[C@H]1C(=O)N2CCC[C@@H]2C(=O)N[C@@H](CC(=O)O)C(=O)N[C@@H](C(C)C)C(=O)N(C)[C@@H](C(C)CC)C(=O)N[C@@H](Cc2ccc(O)cc2)C(=O)N2CCC[C@@H]2C(=O)N[C@@H](Cc2c[nH]c3ccccc23)C(=O)N[C@@H](Cc2ccc(O)cc2)C(=O)N[C@@H](CC(C)C)C(=O)N[C@H](C(=O)NCC(N)=O)CSCC(=O)N[C@@H](Cc2ccc(F)cc2)C(=O)N(C)[C@@H](Cc2ccccc2)C(=O)N1C` (stereo partly drawn) [Example 9257] ({CH2CO}-[Phe(4-F)][NMeF][NMeNle][dP]DV[NMeIle(3ξ)]Y[dP]WYLCG-NH2; thioether N-13) and `CCCC[C@H]1C(=O)N2CCC[C@@H]2C(=O)N[C@@H](CC(=O)O)C(=O)N[C@@H](C(C)C)C(=O)N(C)[C@@H](C(C)CC)C(=O)N[C@@H](Cc2ccc(O)cc2)C(=O)N2CCCC[C@@H]2C(=O)N[C@@H](Cc2c[nH]c3ccccc23)C(=O)N[C@@H](Cc2ccc(O)cc2)C(=O)N[C@@H](CCCN)C(=O)N[C@H](C(=O)NCC(N)=O)CSCC(=O)N[C@@H](Cc2ccc(F)cc2)C(=O)N(C)[C@@H](Cc2ccccc2)C(=O)N1C` (stereo partly drawn) [Example 9259] ({CH2CO}-[Phe(4-F)][NMeF][NMeNle][dP]DV[NMeIle(3ξ)]Y[dPip]WY[Orn]CG-NH2; thioether N-13) fall in the same range of IC50: 1000 to 10000 nM for the first, 1000 to 10000 nM for the second.

`CCCC[C@H]1C(=O)N2CCC[C@@H]2C(=O)N[C@@H](CC(=O)O)C(=O)N[C@@H](C(C)C)C(=O)N(C)[C@@H](C(C)CC)C(=O)N[C@@H](CCC(N)=O)C(=O)N2CCC[C@@H]2C(=O)N[C@@H](Cc2c[nH]c3ccccc23)C(=O)N[C@@H](Cc2ccc(O)cc2)C(=O)N[C@@H](CC(C)C)C(=O)N[C@H](C(=O)NCC(N)=O)CSCC(=O)N[C@@H](Cc2ccc(F)cc2)C(=O)N(C)[C@@H](Cc2ccccc2)C(=O)N1C` (stereo partly drawn) [Example 9260] ({CH2CO}-[Phe(4-F)][NMeF][NMeNle][dP]DV[NMeIle(3ξ)]Q[dP]WYLCG-NH2; thioether N-13) and `CCCC[C@H]1C(=O)N2CCC[C@@H]2C(=O)N[C@@H](CC(=O)O)C(=O)N[C@@H](C(C)C)C(=O)N(C)[C@@H](C(C)CC)C(=O)N[C@@H](CCC(N)=O)C(=O)N2CCCC[C@@H]2C(=O)N[C@@H](Cc2c[nH]c3ccccc23)C(=O)N[C@@H](Cc2ccc(O)cc2)C(=O)N[C@@H](CC(C)C)C(=O)N[C@H](C(=O)NCC(N)=O)CSCC(=O)N[C@@H](Cc2ccc(F)cc2)C(=O)N(C)[C@@H](Cc2ccccc2)C(=O)N1C` (stereo partly drawn) [Example 9261] ({CH2CO}-[Phe(4-F)][NMeF][NMeNle][dP]DV[NMeIle(3ξ)]Q[dPip]WYLCG-NH2; thioether N-13) fall in the same range of IC50: 1000 to 10000 nM for the first, 1000 to 10000 nM for the second.

`CCCC[C@H]1C(=O)N2CCC[C@@H]2C(=O)N[C@@H](CC(=O)O)C(=O)N[C@@H](C(C)C)C(=O)N(C)[C@@H](C(C)CC)C(=O)N[C@@H](CCC(N)=O)C(=O)N2CCC[C@@H]2C(=O)N[C@@H](Cc2c[nH]c3ccccc23)C(=O)N[C@@H](Cc2ccc(O)cc2)C(=O)N[C@@H](CCCN)C(=O)N[C@H](C(=O)NCC(N)=O)CSCC(=O)N[C@@H](Cc2ccc(F)cc2)C(=O)N(C)[C@@H](Cc2ccccc2)C(=O)N1C` (stereo partly drawn) [Example 9262] ({CH2CO}-[Phe(4-F)][NMeF][NMeNle][dP]DV[NMeIle(3ξ)]Q[dP]WY[Orn]CG-NH2; thioether N-13) and `CCCC[C@H]1C(=O)N2CCC[C@@H]2C(=O)N[C@@H](CC(=O)O)C(=O)N[C@@H](C(C)C)C(=O)N(C)[C@@H](C(C)CC)C(=O)N[C@@H](CCC(N)=O)C(=O)N2CCCC[C@@H]2C(=O)N[C@@H](Cc2c[nH]c3ccccc23)C(=O)N[C@@H](Cc2ccc(O)cc2)C(=O)N[C@@H](CCCN)C(=O)N[C@H](C(=O)NCC(N)=O)CSCC(=O)N[C@@H](Cc2ccc(F)cc2)C(=O)N(C)[C@@H](Cc2ccccc2)C(=O)N1C` (stereo partly drawn) [Example 9263] ({CH2CO}-[Phe(4-F)][NMeF][NMeNle][dP]DV[NMeIle(3ξ)]Q[dPip]WY[Orn]CG-NH2; thioether N-13) fall in the same range of IC50: 1000 to 10000 nM for the first, 1000 to 10000 nM for the second.

`COCC[C@H]1C(=O)N2C[C@@H](O)C[C@@H]2C(=O)N[C@@H](CC(=O)O)C(=O)N[C@@H](C(C)C)C(=O)N(C)[C@@H](Cc2ccccc2)C(=O)N[C@@H](Cc2ccc(O)cc2)C(=O)N2CCOC[C@@H]2C(=O)N[C@@H](Cc2c[nH]c3ccccc23)C(=O)N[C@@H](Cc2ccc(O)cc2)C(=O)N[C@@H](CC(C)C)C(=O)N[C@H](C(=O)NCC(N)=O)CSCC(=O)N[C@@H](Cc2cc(F)c(F)c(F)c2)C(=O)N(C)[C@@H](Cc2ccccc2)C(=O)N1C` [Example 9264] ({CH2CO}-[Phe(3,4,5-F3)][NMeF][NMehSer](Me)[dHyp]DV[NMeF]Y[X1]WYLCG-NH2; thioether N-13) and `COCC[C@H]1C(=O)N2C[C@@H](O)C[C@@H]2C(=O)N[C@@H](CC(=O)O)C(=O)N[C@@H](C(C)C)C(=O)N(C)[C@@H](Cc2ccccc2)C(=O)N[C@@H](Cc2ccc(O)cc2)C(=O)N2CCOC[C@@H]2C(=O)N[C@@H](Cc2c[nH]c3ccccc23)C(=O)N[C@@H](Cc2ccc(O)cc2)C(=O)N[C@@H](CCCN)C(=O)N[C@H](C(=O)NCC(N)=O)CSCC(=O)N[C@@H](Cc2cc(F)c(F)c(F)c2)C(=O)N(C)[C@@H](Cc2ccccc2)C(=O)N1C` [Example 9265] ({CH2CO}-[Phe(3,4,5-F3)][NMeF][NMehSer](Me)[dHyp]DV[NMeF]Y[X1]WY[Orn]CG-NH2; thioether N-13) fall in the same range of IC50: 1 to 9.9 nM for the first, 1 to 9.9 nM for the second.

`COCC[C@H]1C(=O)N2C[C@@H](O)C[C@@H]2C(=O)N[C@@H](CC(=O)O)C(=O)N[C@@H](C(C)C)C(=O)N(C)[C@@H](Cc2ccccc2)C(=O)N[C@@H](CCC(N)=O)C(=O)N2CCOC[C@@H]2C(=O)N[C@@H](Cc2c[nH]c3ccccc23)C(=O)N[C@@H](Cc2ccc(O)cc2)C(=O)N[C@@H](CC(C)C)C(=O)N[C@H](C(=O)NCC(N)=O)CSCC(=O)N[C@@H](Cc2cc(F)c(F)c(F)c2)C(=O)N(C)[C@@H](Cc2ccccc2)C(=O)N1C` [Example 9266] ({CH2CO}-[Phe(3,4,5-F3)][NMeF][NMehSer](Me)[dHyp]DV[NMeF]Q[X1]WYLCG-NH2; thioether N-13) and `COCC[C@H]1C(=O)N2C[C@@H](O)C[C@@H]2C(=O)N[C@@H](CC(=O)O)C(=O)N[C@@H](C(C)C)C(=O)N(C)[C@@H](Cc2ccccc2)C(=O)N[C@@H](CCC(N)=O)C(=O)N2CCOC[C@@H]2C(=O)N[C@@H](Cc2c[nH]c3ccccc23)C(=O)N[C@@H](Cc2ccc(O)cc2)C(=O)N[C@@H](CCCN)C(=O)N[C@H](C(=O)NCC(N)=O)CSCC(=O)N[C@@H](Cc2cc(F)c(F)c(F)c2)C(=O)N(C)[C@@H](Cc2ccccc2)C(=O)N1C` [Example 9267] ({CH2CO}-[Phe(3,4,5-F3)][NMeF][NMehSer](Me)[dHyp]DV[NMeF]Q[X1]WY[Orn]CG-NH2; thioether N-13) fall in the same range of IC50: 1 to 9.9 nM for the first, 1 to 9.9 nM for the second.

`COCC[C@H]1C(=O)N2C[C@@H](O)C[C@@H]2C(=O)N[C@@H](CC(=O)O)C(=O)N[C@@H](C(C)C)C(=O)N(C)[C@@H](Cc2ccccc2)C(=O)N[C@@H](CCC(=O)O)C(=O)N2CCOC[C@@H]2C(=O)N[C@@H](Cc2c[nH]c3ccccc23)C(=O)N[C@@H](Cc2ccc(O)cc2)C(=O)N[C@@H](CCCN)C(=O)N[C@H](C(=O)NCC(N)=O)CSCC(=O)N[C@@H](Cc2cc(F)c(F)c(F)c2)C(=O)N(C)[C@@H](Cc2ccccc2)C(=O)N1C` [Example 9268] ({CH2CO}-[Phe(3,4,5-F3)][NMeF][NMehSer](Me)[dHyp]DV[NMeF]E[X1]WY[Orn]CG-NH2; thioether N-13) and `COCC[C@H]1C(=O)N2C[C@@H](O)C[C@@H]2C(=O)N[C@@H](CC(=O)O)C(=O)N[C@@H](C(C)C)C(=O)N(C)[C@@H](Cc2ccccc2)C(=O)N[C@@H](CC(=O)O)C(=O)N2CCOC[C@@H]2C(=O)N[C@@H](Cc2c[nH]c3ccccc23)C(=O)N[C@@H](Cc2ccc(O)cc2)C(=O)N[C@@H](CCCN)C(=O)N[C@H](C(=O)NCC(N)=O)CSCC(=O)N[C@@H](Cc2cc(F)c(F)c(F)c2)C(=O)N(C)[C@@H](Cc2ccccc2)C(=O)N1C` [Example 9269] ({CH2CO}-[Phe(3,4,5-F3)][NMeF][NMehSer](Me)[dHyp]DV[NMeF]D[X1]WY[Orn]CG-NH2; thioether N-13) fall in the same range of IC50: 1 to 9.9 nM for the first, 1 to 9.9 nM for the second.

Same assay, conditions: PD-L1-His 10 nM, PD-1-Ig 20 nM; read-out: HTRF Human PD-L1/PD-1 Binding Assay IC50

Work on `CCCC[C@H]1C(=O)N2CCC[C@@H]2C(=O)N[C@@H](CC(=O)O)C(=O)N[C@@H](C(C)C)C(=O)N(C)[C@@H](C(C)CC)C(=O)N[C@@H](Cc2ccc(O)cc2)C(=O)N2CCCC[C@@H]2C(=O)N[C@@H](Cc2c[nH]c3ccccc23)C(=O)N[C@@H](Cc2ccc(O)cc2)C(=O)N[C@@H](CC(C)C)C(=O)N[C@H](C(=O)NCC(N)=O)CSCC(=O)N[C@@H](Cc2ccc(F)cc2)C(=O)N(C)[C@@H](Cc2ccccc2)C(=O)N1C` (stereo partly drawn) [Example 9258] ({CH2CO}-[Phe(4-F)][NMeF][NMeNle][dP]DV[NMeIle(3ξ)]Y[dPip]WYLCG-NH2; thioether N-13) yielded an IC50 of 7280 nM.

From patent US10538555B2, “Macrocyclic inhibitors of the PD-1/PD-L1 and CD80(B7-1)/PD-L1 protein/protein interactions” (BRISTOL-MYERS SQUIBB COMPANY, priority 2014, dated 2020)
